Experimental data published in patent US7247295B2, “Use of 1,2-decandiol for combating germs causing body odor” (DRAGOCO Gerberding & Co. AG, priority 2001, dated 2007).
Values after ≈ are worked out from the molar mass of the structure shown.

How the values were obtained:
Format in all cases: cell-based
[1] = test system: Corynebacterium xerosis ATCC 7711; experiment: MIC determination, agar dilution method (DIN 58 940/58 944); conditions: ATCC7711, Mueller-Hinton agar, aerobic, 18 h at 36° C., pure substance
Description: (§1) To prepare various test concentrations 2.6 ml of a 3.3% stock solution (3.3 g 1,2-decanediol or comparison substance in 100 ml ethanol (96% in H2O; Merck, Cat. no. 1.00971)) was used at the starting material in each case. Further test concentrations (diluted sample) in the form of a geometric dilution series were prepared by progressive 2:1 dilution with ethanol (96%; Merck, Cat. no. 1.00971). Determination of the antimicrobial action of 1,2-decanediol (or of a comparison substance) was carried out with the aid of the agar dilution method based on DIN 58 940/ICS and DIN 58 944/ICS. Petri dishes 5.5 cm in diameter were filled with 8.7 ml freshly prepared Mueller-Hinton agar (Merck, Cat. no. 1.05437 or Wilkins-Chalgren agar boillon (sic), Oxoid, Cat. no. CM 643, supplemented with 10 g agar-agar/litre) kept liquid at 50° C., to which in each case 0.3 ml of the particular sample, that is to say 3.3% (V/V) based on the total volume of agar and sample, was added. By means of this further dilution of the undiluted stock solution and of the already diluted samples with the test agar (0.3 ml of the stock solution or of the corresponding diluted sample+8.7 ml agar) 30-fold lower end concentrations were prepared in each case (when using the stock solution an initial concentration of 1,100 ppm results). The concentrations given below are based on the pure substance and have been converted to ppm. 2 agar plates were cast per test concentration and nutrient medium. After solidification and drying (about 1 h at 37° C.), the test plates were inoculated in point form with, in each case, 1 μl of the test organism suspensions listed below. To check purity and identity, the aerobically growing bacteria Brevibacterium epidermidis, Corynebacterium xerosis; and Staphylococcus epidermidis were cultured on Columbia blood agar (BioMérieux, Cat. no. 43049). Further details on the test organisms can be taken from Table 2. [table] The preparation of the test organism suspensions of the test organisms for Brevibacterium epidermidis, Corynebacterium xerosis, and Staphylococcus epidermidis was carried out by incubation of Mueller-Hinton bouillon (Merck, Cat. no. 1.10293), which had been inoculated with a few individual colonies of the particular test organisms, at 36° C. After a distinct turbidity had been achieved, sterile nutrient bouillon was added to the suspensions in such an amount that the turbidity thereof corresponded to McFarland Standard 0.5 (approx. 10^8 CFU/ml). The inoculated plates were incubated under the conditions given in Table 3 and were then assessed. The MIC (minimum inhibitory concentration) was considered to be the lowest active compound concentration with which there is macroscopically no growth. Minimum, barely visible growth or a few small individual colonies were assessed as inhibition. [table] Suspensions of the microorganisms described above were incubated in accordance with the general test conditions described under 1. and the MIC values of 1,2-decanediol were determined (see Table 4). For reference purposes the MIC values for 1,2-octanediol were also determined.

[2] = test system: Brevibacterium epidermidis ATCC 35514; experiment: as above; conditions: ATCC35514, Mueller-Hinton agar, aerobic, 18 h at 36° C., pure substance
Description: as §1

[3] = test system: Staphylococcus epidermidis ATCC 12228; experiment: as above; conditions: ATCC12228, Mueller-Hinton agar, aerobic, 18 h at 36° C., pure substance
Description: as §1

[4] = test system: Staphylococcus epidermidis, Corynebacterium xerosis, Brevibacterium epidermidis; experiment: MIC determination, agar dilution method, summary over the three test organisms; conditions: summary of Table 4 over all three test organisms
Description: To prepare various test concentrations 2.6 ml of a 3.3% stock solution (3.3 g 1,2-decanediol or comparison substance in 100 ml ethanol (96% in H2O; Merck, Cat. no. 1.00971)) was used at the starting material in each case. Further test concentrations (diluted sample) in the form of a geometric dilution series were prepared by progressive 2:1 dilution with ethanol (96%; Merck, Cat. no. 1.00971). Determination of the antimicrobial action of 1,2-decanediol (or of a comparison substance) was carried out with the aid of the agar dilution method based on DIN 58 940/ICS and DIN 58 944/ICS. […] The inoculated plates were incubated under the conditions given in Table 3 and were then assessed. […] Minimum, barely visible growth or a few small individual colonies were assessed as inhibition. Suspensions of the microorganisms described above were incubated in accordance with the general test conditions described under 1. and the MIC values of 1,2-decanediol were determined (see Table 4). For reference purposes the MIC values for 1,2-octanediol were also determined.

[5] = test system: Corynebacterium xerosis (C. xerosis 7711); experiment: Growth curve, suspension test; conditions: concentration 0.3% in AC medium; incubated 20, 60 and 180 min; compared with 1,2-octanediol and farnesol
Description: • AC medium: 37 g brain heart infusion, 5 g glucose, 1 ml Tween 80, made up to 1 l with H2O. Test Substances: • 1,2-Octanediol (0.3%) • 1,2-Decanediol (0.3%) • Farnesol (0.3%) Control: • AC medium without active compound Test Solutions: • Relevant test substance in AC medium Suspension Test (see FIG. 1) 60 ml AC medium were inoculated with 0.4 ml of a fresh overnight culture of the test organism Corynebacterium xerosis (C. xerosis 7711). The culture vessel was shaken at 30° C. and 250 rpm until a cell density of 10^5 to 10^6 cells/ml had been reached. The test substances were weighed out and in each case dissolved in 2.5 ml AC medium with brief heating to 60° C. The test solutions obtained in this way were then added to 2.5 ml bacterial suspension in each case and the mixtures were incubated for 20, 60 and 180 min maintaining the growth conditions. 100 μl of the incubated test solutions were then taken and the bacterial titre determined by plating-out on nutrient medium.

| MIC [1] | MIC [2] | MIC [3] | MIC [4] | MIC values (over the three test organisms) [4] | Compound | effectiveness in growth curve (bacterial titre) [5] |
| --- | --- | --- | --- | --- | --- | --- |
| 3600 µg/mL (≈ 24.6 mM) | 3600 µg/mL (≈ 24.6 mM) | 1800 µg/mL (≈ 12.3 mM) | 1800 to 3600 µg/mL (≈ 12.3 to 24.6 mM) | – | CCCCCCC(O)CO (stereo not drawn) [1,2-Octanediol, 1,2-octanediol, reference compound] | – |
| 225 µg/mL (≈ 1.29 mM) | 450 µg/mL (≈ 2.58 mM) | 225 µg/mL (≈ 1.29 mM) | – | distinctly lower | CCCCCCCCC(O)CO (stereo not drawn) [1,2-Decanediol, 1,2-decanediol] | by far the greatest effectiveness of the substances tested |
